From patent US20210308028A1, “Compositions and Methods for Maintaining and Protecting Tissue Integrity and Barrier Function” (Colgate-Palmolive Company, priority 2020, published 2021)
Structures can show the parent of a compound that is named as a salt.

Legend:
[1] = tested on: gingival keratinocyte barrier; conditions: previously reported; cited from earlier work
[2] = tested on: P. gingivalis collagenase; test: Proteolytic assay: collagen DQ degradation by P. gingivalis culture supernatant; format: biochemical, Porphyromonas gingivalis; conditions: Example 6, FIGS. 35, 38, 41; over 5 hours
Procedure: To determine the effects of formulations tested on the proteinase activity of P. gingivalis, a 48-h culture was centrifuged at 10 000×g for 10 min. […] The fluorescence corresponding to collagen degradation was monitored using a Synergy 2 microplate reader, with the excitation and emission wavelengths set at 495 nm and 525 nm, respectively. Test compounds or the fluorescent substrate alone were used as controls. For the proteolytic assay, the following ratio was used: 40% P. gingivalis supernatant+40% test compounds+20% DQ collagen. […]
To determine the effects of the Dual Zinc plus Arginine aqueous solution and dentifrice on the proteinase activity of P. gingivalis, a 48-h culture was centrifuged at 10 000×g for 10 min. Assay mixtures containing equal volumes of P. gingivalis culture supernatant, the fluorescent substrate collagen DQ™ (100 μg/mL; Molecular Probes, Eugene, Oreg., USA), and the Dual Zinc […] The fluorescence corresponding to collagen degradation was monitored using a Synergy 2 microplate reader, with the excitation and emission wavelengths set at 495 nm and 525 nm, respectively. Test compounds or the fluorescent substrate alone were used as controls. Leupeptin (1 μM) was used as a positive inhibitory control.

[3] = tested on: intestinal mucosal barrier; conditions: reported; cited from earlier work
[4] = tested on: Mattek Epigingival tissues; test: TER of Epigingival tissues upon sodium lauryl sulfate (SLS) challenge; format: cell-based, human
From the text: Cell junctions are intercellular pathways that selectively permit the movement of molecules through cellular layers. In terms of biological function, cell junctions form a barrier between apical and basolateral cell surfaces and are crucial in the development and function of epithelial tissues. The ion permeability of cell junctions can be measured through a voltmeter in the form of Trans Epithelial Electric Resistance (TER). Measurements are quickly determined through an electrode with little to no disturbance to the cell layers. The resistance correlates to the integrity of the tissue, and confluent tissue layers with intact cell junctions lead to higher TER readings.
Epigingival tissues were purchased from Mattek Corporation for use in the experiment. These multilayered epithelial cells imitate human gingival tissue in-vivo and can withstand high concentrations of toothpaste solutions. Once the tissues arrived in the laboratory, individual tissues were reconstituted in 1 mL of Mattek provided GIN-100 maintenance medium overnight at 37° C. and 5% CO2 before testing of samples. The medium was changed every day after treatment.
TER measurement experiment was performed comparing the neat active ingredients in solution and their effects on the physical integrity of Mattek Epigingival tissues. […]

[5] = tested on: in vitro oral mucosa model; conditions: Rybakovsky 2017; cited from earlier work
[6] = tested on: intestinal epithelial barrier; conditions: Sarkar 2019; in vivo (mouse) and in vitro models; cited from earlier work
[7] = tested on: B11 gingival keratinocytes treated with TNF-α; test: FITC-dextran paracellular transport with TNF-α challenge; format: cell-based, human; conditions: TNF-α 100 ng/ml, 48-h exposure
Procedure: The ability of test composition samples to enhance epithelial barrier integrity was assessed by monitoring the paracellular transport of FITC-conjugated 4.4-kDa dextran (FD-4; Sigma-Aldrich Canada Ltd.) across the keratinocyte layer. Briefly, B11 cells were cultured on Transwell filters, and FD-4 ([…] in culture medium) was added in the apical compartment in the presence of the test composition under investigation. Fluorescence in the basolateral compartment was measured at 0, 4, 8, 24, and 48 h using a Synergy 2 microplate reader (BioTek Instrument, Winooski, Vt., USA).
(§1) Assays exposed cells to either TNFα only or TNFα+test composition. TNFα is known to cause tissue damage. A stock solution of recombinant TNF-α is prepared in sterile distilled water at 100 μg/ml. Thereafter, dilutions are made in keratinocyte culture medium. First dilution is 1/1000 to obtain 100 ng/ml. TNF-α and the test compounds are added simultaneously.
Gingival keratinocytes were cultured in the apical chamber of Transwell™ inserts as described above. Immediately after adding fluorescein isothiocyanate-conjugated dextran of 4.4 kDa (FD-4; 1 mg/ml in culture medium) to the apical compartment, the formulations under investigation were added in presence of recombinant TNF-α (100 ng/ml). Fluorescence in the basolateral compartment was recorded after 0, 2, 6, 24, and 48 h of incubation using a Synergy 2 microplate reader (BioTek Instruments; Winooski, Vt., USA).

[8] = tested on: gingival keratinocytes; test: MTT colorimetric cell viability assay; format: cell-based, human
Procedure: The tight junction integrity of the B11 gingival keratinocytes was assessed by determining the transepithelial electrical resistance (TER). Briefly, B11 keratinocytes were seeded onto Costar™ Transwell™ clear polyester membrane inserts (6.5-mm diameter; 0.4-μm pore size; Corning Co., Cambridge, Mass., USA) at 3×10^5 cells per insert. The basolateral and apical compartments were filled with 0.6 mL and 0.1 mL of complete K-SFM, respectively, and the cultures were incubated for 3 days at 37° C. in a 5% CO2 atmosphere. The conditioned medium was then replaced with fresh antibiotic-free K-SFM. Following a further incubation (16 h), the TER values were measured using an Ohm/voltmeter (EVOM2; World Precision Instruments, Sarasota, Fla., USA) at 0, 2, 6, 24, and 48 h. Resistance values were calculated in Ohms (Ω)/cm^2 by multiplying the resistance values by the filter surface area. Results were expressed as a percentage of the basal control values measured at time 0 h (100% values) for each condition. […] The effect of these treatments on cell viability was assessed using an MTT (3-[4,5-[…]-2-yl]-2,5diphenyltetrazolim bromide) colorimetric assay, according to the manufacturer's instructions (Roche Diagnostics, Laval, QC, Canada).

[9] = tested on: B11 gingival keratinocytes treated with TNF-α; test: TER with TNF-α challenge; format: cell-based, human; conditions: TNF-α 100 ng/ml
Procedure: Tight junction integrity was assessed by determining the trans-epithelial electrical resistance (TER). B11 gingival keratinocytes were seeded onto Costar™ Transwell™ clear polyester membrane inserts (6.5-mm diameter; 0.4-μm pore size; Corning Co., Cambridge, Mass., USA) at 3×10^5 cells per insert. The basolateral and apical compartments were filled with 0.6 mL and 0.1 mL of complete K-SFM, respectively. Following a 72-h incubation, the conditioned medium was replaced with antibiotic-free K-SFM, and the cells were incubated for a further 16 h. The TER values were measured using an Ohm/voltmeter (EVOM2; World Precision Instruments, Sarasota, Fla., USA) at 0, 4, 8, 24, 48, and 72 h. Resistance values were calculated in Ohms (Ω)/cm 2 by multiplying the resistance values by the filter surface area. Results were expressed as percentage of the basal control values measured at time 0 h (100% values) for each condition.
as §1
Keratinocyte barrier integrity was determined by monitoring transepithelial electrical resistance (TER). Briefly, keratinocytes (3×10^5 cells per insert; 0.1 ml) were seeded in the apical compartment of Costar™ Transwell™ clear polyester membrane inserts (6.5 mm in diameter, 0.4 μm pore size; Corning Co., Cambridge, Mass., USA), while the basolateral compartment was filled with 0.6 ml of culture medium. After 72-h of incubation, the conditioned culture medium was replaced with fresh antibiotic-free K-SFM, and the cells were further incubated for 16 h prior treating the cells. Recombinant human TNF-α (100 ng/ml; AnaSpec, Fremont, USA) and the formulations (final dilutions of 1/500, 1/1000, and 1/2000 (v/v for the aqueous solution; w/v for the dentifrice) under investigation were added to the apical compartment. The TER values were monitored using an ohm/voltmeter (EVOM^2; World Precision Instruments, Sarasota, Fla., USA) after 0, 6, 24, and 48 h of incubation. The TER values in Ohms (Ω)/cm^2 were determined by multiplying the resistance values by the surface area of the membrane filter. Results are expressed as the percentage of the basal control value measured at time 0-h (100% value).

[10] = tested on: gingival keratinocytes; test: Keratinocyte proliferation (CellTracker Green CMFDA); format: cell-based, human; conditions: TNF-α 100 ng/ml
Procedure: Gingival keratinocytes were seeded into wells (20,000 cells per well) of a 96-well microplate (0.1 ml/well) and incubated overnight at 37° C. in a 5% CO2 atmosphere to allow cell adhesion. The culture medium was then removed, and the cells were treated or not with TNF-α (100 ng/ml) with or without the formulations under investigation for 72 h at 37° C. in a 5% CO2 atmosphere. Cell proliferation was measured using the fluorescent CellTracker™ Green CMFDA (5-chloromethylfluorescein diacetate) Dye according to the manufacturer's instructions (Thermo Fisher Scientific). Untreated control cells were assigned a value of 100%. Briefly, after 24 h of stimulation, the supernatant was removed and the cells were washed with PBS. […] Fluorescent keratinocytes were also visualized using an inverted Olympus FS X100 fluorescent microscope.

Nc1nc(N)nc(-c2cc(Cl)ccc2Cl)n1 [irsogladine maleate]
protection of gingival keratinocyte barrier against TNF-α-induced damage [1]: reversed the TNF-α-induced disruption of the gingival epithelial barrier

CC(=O)N[C@@H](CC(C)C)C(=O)N[C@@H](CC(C)C)C(=O)N[C@H](C=O)CCCNC(=N)N [Leupeptin, reference compound]
inhibition of P. gingivalis collagenase activity [2]: inhibited P. gingivalis collagenase activity

epigallocatechin-3-gallate
protection of gingival keratinocyte barrier against TNF-α-induced damage [1]: prevented epithelial barrier disruption

N=C(N)NCCC[C@H](N)C(=O)O [Arginine, arginine]
intestinal mucosal barrier functions [3]: improve the intestinal mucosal barrier functions | effect on SLS-induced increase in tissue permeability (TER ratio) ([4]; tissues treated 3x over 3 days, then 0.5% SLS for 2 minutes, FIGS. 1-4): minimal effect

[Zn] [zinc]
epithelial barrier function (transepithelial electrical resistance) [5]: improve epithelial barrier function | protection of intestinal epithelial barrier from Shigella flexneri [6]: allows protection of the intestinal epithelial barrier from damage mediated by the pathogen Shigella flexneri

TNF-α
increase of FD-4 transport by TNF-α [7]: 50.8% | viability of gingival keratinocytes (MTT) [8]: no significant loss of cell viability | decrease of TER by TNF-α ([9]; 6 h): 25.8% | decrease of TER by TNF-α ([9]; 24 h): 49.3% | decrease of TER by TNF-α ([9]; 48 h): 85.1% | reduction of cell proliferation by TNF-α [10]: 30.2%

theaflavins
protection of gingival keratinocyte barrier against TNF-α-induced damage [1]: prevented epithelial barrier disruption

CCCCCCCCCCCCOS(=O)(=O)[O-].[Na+] [SLS, Sodium Lauryl Sulfate, reference compound]
tissue permeability after SLS treatment ([4]; 0.5% SLS solution for 2 minutes): increase in tissue permeability
